# From PubChem BioAssay (NCI)
#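 96-well plates; 48 h exposure; 5 concentrations. Endpoints by linear interpolation between flanking doses. Not reached: highest tested concentration assigned. TGI marks complete inhibition of growth.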
# Experiments:
# Test in all cases: NCI tumour cell line growth inhibition, 48 h
# [1] = system: A498 renal
# [2] = system: KM12 colon
# [3] = system: SF-295 CNS
# [4] = system: CAKI-1 renal
# [5] = system: OVCAR-3 ovarian
# [6] = system: NCI-H460 lung
# [7] = system: HL-60(TB) leukemia
# [8] = system: SK-MEL-2 melanoma
# [9] = system: HS 578T breast
# [10] = system: CCRF-CEM leukemia
# [11] = system: SW-620 colon
# [12] = system: MCF7 breast
# [13] = system: HOP-62 NSCLC
# [14] = system: ACHN renal
# [15] = system: UACC-62 melanoma
# [16] = system: SR leukemia
# [17] = system: MDA-MB-231 breast
# [18] = system: RPMI-8226 leukemia
# [19] = system: OVCAR-4 ovarian
# [20] = system: DMS 273 small cell lung
Structure (SMILES),TGI [1] [µM],TGI [2] [µM],TGI [3] [µM],TGI [4] [µM],TGI [5] [µM],TGI [6] [µM],TGI [7] [µM],TGI [8] [µM],TGI [9] [µM],TGI [10] [µM],TGI [11] [µM],TGI [12] [µM],TGI [13] [µM],TGI [14] [µM],TGI [15] [µM],TGI [16] [µM],TGI [17] [µM],TGI [18] [µM],TGI [19] [µM],TGI [20] [µM]
Cc1nc2ccc(Cl)cc2c2c1CCS2,99.2,> 100,> 100,> 100,> 100,> 100,65,> 100,> 100,> 100,> 100,> 100,> 100,> 100,> 100,86.6,> 100,71.4,> 100,–
C=CCOC(=O)Cn1cc(C)c(=O)[nH]c1=O,> 100,> 100,> 100,> 100,–,> 100,> 100,> 100,> 100,> 100,> 100,> 100,> 100,> 100,> 100,> 100,> 100,> 100,> 100,–
COc1ccc(NC(=O)CC(=O)N2N=C(c3ccccc3)C(N=Nc3ccc(S(=O)(=O)CCOS(=O)(=O)O)cc3)C2=O)cc1 (configuration not stated),> 100,> 100,> 100,> 100,> 100,> 100,> 100,> 100,> 100,> 100,> 100,> 100,> 100,> 100,> 100,> 100,> 100,> 100,–,–
COc1cc(OC)cc(OCc2ccc3nc(-c4ccccc4)c(Cl)nc3c2)c1,76.8,> 100,67.8,28.1,> 100,> 100,> 100,> 100,> 100,> 100,> 100,> 100,33.8,> 100,> 100,48,30.5,> 100,> 100,–
CCN(CC)c1ccc(/C=C2/C[N+](C)(C)C/C(=C/c3ccc(N(CC)CC)cc3)C2=O)cc1,> 42.2,2.91,> 90.6,> 100,7.31,15,2.16,3.92,11.2,3.42,13.5,6.04,40.7,> 100,4.84,3.52,5.87,1.24,13.8,–
S=C1Cc2c(-c3ccc(Cl)cc3)cc(-c3ccccc3)nc2-c2ccccc2N1,33,50.9,34.1,13.1,29.8,36.2,> 100,37.6,16.3,> 100,> 100,> 100,24.1,27.1,41.3,> 100,23.8,> 100,18,–
N#CC(C(=O)/C(=N/NC(=O)c1ccccc1O)C(C#N)c1ccccc1)c1ccccc1 (configuration not stated),> 100,> 100,> 100,–,> 100,> 100,–,> 100,–,–,–,–,> 100,> 100,> 100,–,–,> 100,> 100,> 100
C=C1[C@H](OC(=O)C(C)C)[C@]23CC4(O)[C@@H]5[C@@]6(C)CCC[C@]57C([C@@H]2C[C@@]1(O)[C@H](O)[C@@H]73)N4C6,> 100,> 100,> 100,> 100,> 100,> 100,> 100,> 100,> 100,> 100,> 100,> 100,> 100,> 100,> 100,> 100,> 100,> 100,> 100,–
CN(C)Cc1cc(N=Nc2cccc(Cl)c2)ccc1O,23.8,22,27.8,61.1,28.9,26.4,37.4,–,29.4,36.3,23.7,29,22.9,13.5,13.1,54.5,36.7,55.8,34.7,–
CN(C)c1ccc(/C=C(\NC(=O)c2ccccc2)C(=O)NCC(=O)O)cc1,> 100,> 100,> 100,> 100,> 100,> 100,> 100,> 100,> 100,> 100,> 100,> 100,> 100,> 100,> 100,> 100,> 100,> 100,–,–
Cc1n[nH]c(=O)n1C1CCCC1,> 100,> 100,> 100,> 100,> 100,> 100,> 100,–,> 100,> 100,> 100,> 100,> 100,> 100,–,> 100,> 100,> 100,> 100,–
CCCN1CC=C(c2cc(C(=O)OCC)[nH]c2-c2cc(C)no2)C1=O,> 100,> 100,> 100,> 100,> 100,> 100,> 100,> 100,> 100,> 100,> 100,> 100,> 100,–,> 100,> 100,> 100,> 100,> 100,–
Cn1c(N)c(C(N)=O)[nH]c1=S,> 100,> 100,> 100,–,> 100,> 100,> 100,> 100,> 100,> 100,> 100,> 100,> 100,> 100,> 100,> 100,> 100,> 100,> 100,–
